Measured values from US4001325A, “α-Chloroacetanilide selective herbicides” (Diamond Shamrock Corporation, priority 1973, dated 1977).

Key:
[1] = test system: broadleaf species: pigweed, velvetleaf, morningglory; experiment: Greenhouse preemergence herbicide test, broadleaves; type: in vivo; settings: two weeks after treatment, 20160 min
Procedure: (§1) To illustrate the preemergence herbicidal efficiency of the alkyl-substituted 2-chloro-N-propargylacetanilides of this invention, test formulations are prepared of each compound by mixing 20 ml of an acetone solution containing 0.125 g of chemical with 20 ml of water containing 0.01 g of Triton X-155 surfactant. The resultant formulations contain 3125 ppm of test compound, 50% by volume of acetone and 0.025% by weight of surfactant. Appropriate lower concentrations are obtained by diluting this formulation with surfactant-acetone solution so that the concentration of adjuvants is maintained at the original levels.
(§2) Seeds of three broadleaf and three grass species are planted in soil contained in 10 inch × 8 inch × 3 inch aluminum pans filled with 1.5 inches of composted soil. The broadleaf species are pigweed (Amaranthus retroflexus), velvetleaf (Abutilon theophrasti), and morningglory (Ipomea coccinea); the grasses are red millet (Panicum milliacem), green foxtail (Setaria viridis) and Japanese millet (Echinochloa frumentacea).
(§3) The seeded pans are sprayed so that the soil surface is uniformly covered with dilutions of the stock formulation providing dosage rates of the test compounds as shown in the following table.
(§4) Two weeks after treatment, percent control (plant kill) at each dosage rate is estimated with results as follows: […]

[2] = test system: grass species: red millet, green foxtail, Japanese millet; experiment: Greenhouse preemergence herbicide test, grasses; type: in vivo, Panicum milliacem, Setaria viridis, Echinochloa frumentacea; settings: pre-emergence, 336 h, two weeks after treatment; for pest or weed control at 69.4927 g/ha: 0.062 lb/A; for pest or weed control at 140.106 g/ha: 0.125 lb/A; for pest or weed control at 280.212 g/ha: 0.25 lb/A; for pest or weed control at 560.425 g/ha: 0.5 lb/A; for pest or weed control at 1120.85 g/ha: 1.0 lb/A
Procedure: as §1, §2, §3, §4

Cotton = experiment: Field preemergence test, phytotoxic effects on crop; type: in vivo, cotton (Coker 413)
Text: Test plots of fertilized, light sandy soil containing 0.7% organic matter are sprayed uniformly with aqueous suspensions prepared from emulsifiable concentrates containing 12%, by weight, of the test chemicals diluted to provide dosage rates of the test compounds corresponding to 2.0, 1.0, 0.5, and 0.25 pound per acre (lb/A). The plots are then sown with seeds of the following crop plants: sweet corn, cotton (Coker 413) and soybeans, var. Davis. Seeds of the following weed plants are planted: redroot pigweed, prickly sida, common lambsquarter, goosegrass and giant foxtail.
Three to four weeks after planting, percent control (plant kill) of the test plants is estimated, from a rating of 0 which denotes no injury to the plant up to 100 which denotes complete destruction. The herbicidal action of the test compounds obtained on the weed species is as follows:
Phytotoxic effects observed on the crop species is estimated with results as follows: […]

Morningglory = experiment: Example 17 selective herbicidal activity in corn crop, weed kill; type: in vivo, Ipomoea sp.; settings: Ipomoea, 3-4 weeks after planting; for mortality at 280.212 g/ha: 0.25 lb/A; for mortality at 560.425 g/ha: 0.5 lb/A; for mortality at 1120.85 g/ha: 1.0 lb/A; for mortality at 2241.7 g/ha: 2.0 lb/A
Text: (§5) This example illustrates the selective herbicidal activity of two of the presently preferred compounds of this invention against various weed species in a corn crop.
(§6) Plots of light sandy soil, cleared of all weeds, are uniformly treated with aqueous dispersions prepared from an emulsifiable concentrate containing 2- 4 pounds of active ingredient per gallon. Diluted aqueous dispersions are applied as surface treatments at 2.0, 1.0, 0.5, and 0.25 pound of active ingredient per acre (lb/A).
(§7) The treated test plots are sown to corn and with seeds of the following weed species:
(§8) Three to four weeks after planting, the degree of damage to both the corn stands and the weed plants is assessed from a rating of 0% (no injury) to 100% (complete destruction).

Fall Panicum = experiment: as above; type: in vivo; settings: Panicum dichotomiflorum, 3-4 weeks after planting; for mortality at 280.212 g/ha: 0.25 lb/A; for mortality at 560.425 g/ha: 0.5 lb/A; for mortality at 1120.85 g/ha: 1.0 lb/A; for mortality at 2241.7 g/ha: 2.0 lb/A
Text: as §5, §6, §7, §8

Johnsongrass = experiment: as above; type: in vivo; settings: Sorghum halepense, 3-4 weeks after planting; for mortality at 280.212 g/ha: 0.25 lb/A; for mortality at 560.425 g/ha: 0.5 lb/A; for mortality at 1120.85 g/ha: 1.0 lb/A; for mortality at 2241.7 g/ha: 2.0 lb/A
Text: as §5, §6, §7, §8

Velvetleaf = experiment: as above; type: in vivo; settings: Abutilon theophrasti, 3-4 weeks after planting; for mortality at 280.212 g/ha: 0.25 lb/A; for mortality at 560.425 g/ha: 0.5 lb/A; for mortality at 1120.85 g/ha: 1.0 lb/A; for mortality at 2241.7 g/ha: 2.0 lb/A
Text: as §5, §6, §7, §8

Barnyardgrass = experiment: Example 18 preemergence herbicide test in different soils, % control; type: in vivo, barnyard-grass; settings: three weeks
Procedure: (§9) To further illustrate the herbicidal activity of compounds of this invention in different types of soil as would be encountered in different crop growing localities, a preemergence herbicide test is conducted generally as outlined previously herein. Two light sandy soils are employed containing 0.7% and 1.8% organic matter (O.M.), respectively, along with two loam-type, heavier soils containing either 2.0% or 5-5.5% organic matter (O.M.).
(§10) The test plots are all sprayed uniformly with formulations of the test compounds providing 2.0, 1.0, 0.5, and 0.25 pound of active chemical per acre (lb/A).
(§11) Prior to treatment, the soil plots are sown to field corn, soybean, and grain sorghum crops and seeds of barnyard-grass and yellow foxtail.
Three weeks after planting, the percent control of plant growth is rated from 0% (no injury) to 100% (total destruction).

Sorghum = experiment: Example 18 phytotoxic effects on crop stands in different soils; type: in vivo, grain sorghum
Procedure: as §9, §10, §11
Three weeks after planting, the percent control of plant growth is rated from 0% (no injury) to 100% (total destruction). The results obtained are as follows:
Phytotoxic effects on the crop stands are similarly rated with the following results: […]

[3] = 0.5 lb/A, Heavy Soil 5-5.5% O.M.
[4] = 0.5 lb/A, Medium Soil 2.0% O.M.
[5] = 1.0 lb/A, Heavy Soil 5-5.5% O.M.
[6] = 1.0 lb/A, Medium Soil 2.0% O.M.
[7] = 2.0 lb/A, Heavy Soil 5-5.5% O.M.
[8] = 2.0 lb/A, Medium Soil 2.0% O.M.

C#CCN(C(=O)CCl)c1c(CC)cccc1CC [Example 9, 2-Chloro-2',6'-diethyl-N-propargylacetanilide]
% Control, Broadleaves ([1]; 0.062 lb/A): 0% | % Control, Broadleaves ([1]; 0.125 lb/A): 0% | % Control, Broadleaves ([1]; 0.25 lb/A): 0% | % Control, Broadleaves ([1]; 0.5 lb/A): 35% | % Control, Broadleaves ([1]; 1.0 lb/A): 35% | pest or weed control at 69.4927 g/ha [2]: 85% | pest or weed control at 140.106 g/ha [2]: 95% | pest or weed control at 280.212 g/ha [2]: 95% | pest or weed control at 560.425 g/ha [2]: 90% | pest or weed control at 1120.85 g/ha [2]: 95% | % Crop Kill, Cotton (Cotton; 1.0 lb/A): 0% | % Crop Kill, Cotton (Cotton; 2.0 lb/A): 3% | mortality at 280.212 g/ha (Morningglory): 0% | mortality at 560.425 g/ha (Morningglory): 0% | mortality at 1120.85 g/ha (Morningglory): 0% | mortality at 2241.7 g/ha (Morningglory): 3% | mortality at 280.212 g/ha (Fall Panicum): 73% | mortality at 560.425 g/ha (Fall Panicum): 88% | mortality at 1120.85 g/ha (Fall Panicum): 95% | mortality at 2241.7 g/ha (Fall Panicum): 100% | mortality at 280.212 g/ha (Johnsongrass): 0% | mortality at 560.425 g/ha (Johnsongrass): 37% | mortality at 1120.85 g/ha (Johnsongrass): 80% | mortality at 2241.7 g/ha (Johnsongrass): 100% | mortality at 280.212 g/ha (Velvetleaf): 0% | mortality at 560.425 g/ha (Velvetleaf): 0% | mortality at 1120.85 g/ha (Velvetleaf): 6% | mortality at 2241.7 g/ha (Velvetleaf): 18% | % Control, Barnyardgrass (Barnyardgrass; [3]): 90% | % Control, Barnyardgrass (Barnyardgrass; [4]): 95% | % Control, Barnyardgrass (Barnyardgrass; 0.5 lb/A, Sand 0.7% O.M.): 60% | % Control, Barnyardgrass (Barnyardgrass; 0.5 lb/A, Sand 1.8% O.M.): 85% | % Control, Barnyardgrass (Barnyardgrass; [5]): 98% | % Control, Barnyardgrass (Barnyardgrass; [6]): 100% | % Control, Barnyardgrass (Barnyardgrass; 1.0 lb/A, Sand 0.7% O.M.): 90% | % Control, Barnyardgrass (Barnyardgrass; 1.0 lb/A, Sand 1.8% O.M.): 90% | % Control, Barnyardgrass (Barnyardgrass; [7]): 100% | % Control, Barnyardgrass (Barnyardgrass; [8]): 100% | % Control, Barnyardgrass (Barnyardgrass; 2.0 lb/A, Sand 0.7% O.M.): 100% | % Control, Barnyardgrass (Barnyardgrass; 2.0 lb/A, Sand 1.8% O.M.): 100% | % Phytotoxicity, Sorghum (Sorghum; [3]): 35% | % Phytotoxicity, Sorghum (Sorghum; [4]): 40% | % Phytotoxicity, Sorghum (Sorghum; 0.5 lb/A, Sand 0.7% O.M.): 0% | % Phytotoxicity, Sorghum (Sorghum; 0.5 lb/A, Sand 1.8% O.M.): 10% | % Phytotoxicity, Sorghum (Sorghum; [5]): 75% | % Phytotoxicity, Sorghum (Sorghum; [6]): 55% | % Phytotoxicity, Sorghum (Sorghum; 1.0 lb/A, Sand 0.7% O.M.): 10% | % Phytotoxicity, Sorghum (Sorghum; 1.0 lb/A, Sand 1.8% O.M.): 30% | % Phytotoxicity, Sorghum (Sorghum; [7]): 99% | % Phytotoxicity, Sorghum (Sorghum; [8]): 95% | % Phytotoxicity, Sorghum (Sorghum; 2.0 lb/A, Sand 0.7% O.M.): 30% | % Phytotoxicity, Sorghum (Sorghum; 2.0 lb/A, Sand 1.8% O.M.): 70%

C#CCN(C(=O)CCl)c1c(C)cccc1CC [Example 15, 2-Chloro-2'-methyl-6'-ethyl-N-propargylacetanilide]
% Control, Broadleaves ([1]; 0.5 lb/A): 0% | % Control, Broadleaves ([1]; 1.0 lb/A): 35% | pest or weed control at 69.4927 g/ha [2]: 0% | pest or weed control at 140.106 g/ha [2]: 70% | pest or weed control at 280.212 g/ha [2]: 85% | pest or weed control at 560.425 g/ha [2]: 98% | pest or weed control at 1120.85 g/ha [2]: 99% | % Crop Kill, Cotton (Cotton; 0.5 lb/A): 0% | % Crop Kill, Cotton (Cotton; 1.0 lb/A): 6% | % Crop Kill, Cotton (Cotton; 2.0 lb/A): 13% | mortality at 280.212 g/ha (Morningglory): 0% | mortality at 560.425 g/ha (Morningglory): 0% | mortality at 1120.85 g/ha (Morningglory): 0% | mortality at 2241.7 g/ha (Morningglory): 6% | mortality at 280.212 g/ha (Fall Panicum): 78% | mortality at 560.425 g/ha (Fall Panicum): 96% | mortality at 1120.85 g/ha (Fall Panicum): 97% | mortality at 2241.7 g/ha (Fall Panicum): 100% | mortality at 280.212 g/ha (Johnsongrass): 0% | mortality at 560.425 g/ha (Johnsongrass): 73% | mortality at 1120.85 g/ha (Johnsongrass): 100% | mortality at 2241.7 g/ha (Johnsongrass): 100% | mortality at 280.212 g/ha (Velvetleaf): 0% | mortality at 560.425 g/ha (Velvetleaf): 27% | mortality at 1120.85 g/ha (Velvetleaf): 37% | mortality at 2241.7 g/ha (Velvetleaf): 80% | % Control, Barnyardgrass (Barnyardgrass; [3]): 98% | % Control, Barnyardgrass (Barnyardgrass; [4]): 100% | % Control, Barnyardgrass (Barnyardgrass; 0.5 lb/A, Sand 0.7% O.M.): 75% | % Control, Barnyardgrass (Barnyardgrass; 0.5 lb/A, Sand 1.8% O.M.): 50% | % Control, Barnyardgrass (Barnyardgrass; [5]): 100% | % Control, Barnyardgrass (Barnyardgrass; [6]): 100% | % Control, Barnyardgrass (Barnyardgrass; 1.0 lb/A, Sand 0.7% O.M.): 99% | % Control, Barnyardgrass (Barnyardgrass; 1.0 lb/A, Sand 1.8% O.M.): 90% | % Control, Barnyardgrass (Barnyardgrass; [7]): 100% | % Control, Barnyardgrass (Barnyardgrass; [8]): 100% | % Control, Barnyardgrass (Barnyardgrass; 2.0 lb/A, Sand 0.7% O.M.): 99% | % Control, Barnyardgrass (Barnyardgrass; 2.0 lb/A, Sand 1.8% O.M.): 99% | % Phytotoxicity, Sorghum (Sorghum; [3]): 45% | % Phytotoxicity, Sorghum (Sorghum; [4]): 60% | % Phytotoxicity, Sorghum (Sorghum; 0.5 lb/A, Sand 0.7% O.M.): 0% | % Phytotoxicity, Sorghum (Sorghum; 0.5 lb/A, Sand 1.8% O.M.): 20% | % Phytotoxicity, Sorghum (Sorghum; [5]): 90% | % Phytotoxicity, Sorghum (Sorghum; [6]): 100% | % Phytotoxicity, Sorghum (Sorghum; 1.0 lb/A, Sand 0.7% O.M.): 15% | % Phytotoxicity, Sorghum (Sorghum; 1.0 lb/A, Sand 1.8% O.M.): 65% | % Phytotoxicity, Sorghum (Sorghum; [7]): 99% | % Phytotoxicity, Sorghum (Sorghum; [8]): 100% | % Phytotoxicity, Sorghum (Sorghum; 2.0 lb/A, Sand 0.7% O.M.): 50% | % Phytotoxicity, Sorghum (Sorghum; 2.0 lb/A, Sand 1.8% O.M.): 90%
